One experiment deals with acetylcholinesterase (Homo sapiens (Human), UniProt P22303). The experiment can be described thus: biochemical. The class given is biochemical. Particulars: for potency on acetylcholinesterase compared with positive control drug donepezil hydrochloride: in vitro, enzymology level.
Experiment [1] concerns learning and memory disorder of mice induced by scopolamine. The experiment can be described thus: Morris water maze test, senile dementia mice model induced by scopolamine. Particulars: Table 6, scopolamine 1 mg/kg. The class given is in vivo.
Where [2] appears, read: read-out: IC50 (nM), inhibition activity on acetylcholinesterase.
Setting [3] is: modified Ellman method, read-out: IC50 (nM), inhibition activity on acetylcholinesterase.
[4] abbreviates: IC50 (nM), inhibition activity on acetylcholinesterase, modified Ellman method.

Entries after “also recorded” stand apart in the source; their conditions may differ. Like-named read-outs stand apart in the source and are kept apart here.

acetylcholinesterase, sequence (P22303 32-614, species assumed): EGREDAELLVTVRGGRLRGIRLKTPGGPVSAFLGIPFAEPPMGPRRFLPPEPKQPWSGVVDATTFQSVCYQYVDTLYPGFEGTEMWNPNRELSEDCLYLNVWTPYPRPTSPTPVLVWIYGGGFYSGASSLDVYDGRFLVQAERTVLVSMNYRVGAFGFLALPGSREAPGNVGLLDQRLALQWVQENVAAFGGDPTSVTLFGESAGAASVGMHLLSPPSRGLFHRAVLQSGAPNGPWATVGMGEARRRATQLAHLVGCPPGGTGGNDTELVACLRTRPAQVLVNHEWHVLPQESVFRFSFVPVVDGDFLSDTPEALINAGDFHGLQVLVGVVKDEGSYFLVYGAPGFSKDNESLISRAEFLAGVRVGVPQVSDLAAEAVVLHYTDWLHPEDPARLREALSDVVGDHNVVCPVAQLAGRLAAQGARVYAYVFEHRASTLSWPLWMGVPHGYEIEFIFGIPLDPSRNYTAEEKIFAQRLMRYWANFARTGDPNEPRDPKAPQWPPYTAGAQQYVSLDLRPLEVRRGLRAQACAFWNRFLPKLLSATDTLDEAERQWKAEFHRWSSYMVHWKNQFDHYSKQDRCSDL

One may read the IC50 as the midpoint of a concentration-inhibition curve. Regarding `O=C1c2cc3c(cc2C(=O)N1CCC1CCN(Cc2ccccc2F)CC1)OCO3` [Compound I-2, 6-[2-[1-[(2-fluorophenyl)methyl]-4-piperidyl]ethyl]-[1,3]dioxolo[4,5-f]isoindole-5,7-dione], the “potency on acetylcholinesterase compared with positive control drug donepezil hydrochloride” value at acetylcholinesterase is “slightly higher potency than the positive control drug; also recorded: comparable inhibition activity on acetylcholinesterase with donepezil hydrochloride”. The half-maximal inhibitory concentration (IC50) at acetylcholinesterase (setting [2]) was determined as 80 nM.

As for `O=C1c2cc3c(cc2C(=O)N1CCC1CCN(Cc2ccc(F)cc2)CC1)OCO3` [Compound I-4, 6-[2-[1-[(4-fluorophenyl)methyl]-4-piperidyl]ethyl]-[1,3]dioxolo[4,5-f]isoindole-5,7-dione], the “potency on acetylcholinesterase compared with positive control drug donepezil hydrochloride” value at acetylcholinesterase is on record as “slightly lower potency than the positive control drug; also recorded: comparable inhibition activity on acetylcholinesterase with donepezil hydrochloride”. The IC50 at acetylcholinesterase (setting [3]) came out at 167 nM.

`O=C1c2cc3c(cc2CN1CCC1CCN(Cc2ccccc2)CC1)OCO3` [Compound I-5, 6-[2-(1-benzyl-4-piperidyl)ethyl]-5H-[1,3]dioxolo[4,5-f]isoindol-7-one] yielded an IC50 against acetylcholinesterase (setting [4]) of 502 nM. The “potency on acetylcholinesterase compared with positive control drug donepezil hydrochloride” value at acetylcholinesterase is given as “even lower”.

As to `O=C1c2cc3c(cc2CN1CCC1CCN(Cc2ccccc2F)CC1)OCO3` [Compound I-6, 6-[2-[1-[(2-fluorophenyl)methyl]-4-piperidyl]ethyl]-5H-[1,3]dioxolo[4,5-f]isoindol-7-one], the “potency on acetylcholinesterase compared with positive control drug donepezil hydrochloride” value at acetylcholinesterase is listed as “even lower”. Besides, the IC50 on acetylcholinesterase (setting [3]) stood at 483 nM.

Turning to `O=C1c2cc3c(cc2CN1CCC1CCN(Cc2cccc(F)c2)CC1)OCO3` [Compound I-7, 6-[2-[1-[(3-fluorophenyl)methyl]-4-piperidyl]ethyl]-5H-[1,3]dioxolo[4,5-f]isoindol-7-one], the “potency on acetylcholinesterase compared with positive control drug donepezil hydrochloride” value at acetylcholinesterase is “even lower”. The IC50 on acetylcholinesterase (setting [3]) came to 486 nM.

In the case of `O=C1c2cc3c(cc2CN1CCC1CCN(Cc2ccc(F)cc2)CC1)OCO3` [Compound I-8, 6-[2-[1-[(4-fluorophenyl)methyl]-4-piperidyl]ethyl]-5H-[1,3]dioxolo[4,5-f]isoindol-7-one], the “potency on acetylcholinesterase compared with positive control drug donepezil hydrochloride” value at acetylcholinesterase is “even lower”. Further, the IC50 at acetylcholinesterase (setting [3]) stood at 658 nM.

In the case of `CC1c2cc3c(cc2C(=O)N1CCC1CCN(Cc2ccccc2)CC1)OCO3` (stereo not shown) [Compound I-9, 6-[2-(1-benzyl-4-piperidyl)ethyl]-5-methyl-5H-[1,3]dioxolo[4,5-f]isoindol-7-one], in experiment [1] (5 mg/kg intragastric), the “latent period day 1” value stood at 58.9 ± 4.0 s, the “latent period day 2” value is on record as 60 ± 0 s, the “latent period day 3” value was 51.2 ± 11.0 s and the “latent period day 4” value is 53.4 ± 11.8 s. Moreover, in experiment [1] (5 mg/kg intragastric), the “latent period day 5” value amounted to 51.1 ± 11.5 s and the “times of crossing platform” value was 1.27 ± 1.44. In addition, in experiment [1] (10 mg/kg intragastric), the “latent period day 1” value is listed as 58.3 ± 6.5 s, the “latent period day 2” value amounted to 56.6 ± 9.1 s, the “latent period day 3” value turned out to be 56.5 ± 6.3 s and the “latent period day 4” value is 51.1 ± 11.6 s. For the same compound, in experiment [1] (10 mg/kg intragastric), the “latent period day 5” value turned out to be 49.2 ± 16.9 s and the “times of crossing platform” value stood at 1.80 ± 1.74.

As to `CC1c2cc3c(cc2C(=O)N1CCC1CCN(Cc2ccccc2F)CC1)OCO3` (stereo not shown) [Compound I-10, 6-[2-[1-[(2-fluorophenyl)methyl]-4-piperidyl]ethyl]-5-methyl-5H-[1,3]dioxolo[4,5-f]isoindol-7-one], the “potency on acetylcholinesterase compared with positive control drug donepezil hydrochloride” value at acetylcholinesterase is listed as “slightly lower potency than the positive control drug”. Moreover, the IC50 at acetylcholinesterase (setting [3]) is 239 nM.

On to `CC1c2cc3c(cc2C(=O)N1CCC1CCN(Cc2cccc(F)c2)CC1)OCO3` (stereo not shown) [Compound I-11, 6-[2-[1-[(3-fluorophenyl)methyl]-4-piperidyl]ethyl]-5-methyl-5H-[1,3]dioxolo[4,5-f]isoindol-7-one], for which, on acetylcholinesterase, the “potency on acetylcholinesterase compared with positive control drug donepezil hydrochloride” value was “even lower”. The IC50 on acetylcholinesterase (setting [3]) is 889 nM.

Consider `CC1c2cc3c(cc2C(=O)N1CCC1CCN(Cc2ccc(F)cc2)CC1)OCO3` (stereo not shown) [Compound I-12, 6-[2-[1-[(4-fluorophenyl)methyl]-4-piperidyl]ethyl]-5-methyl-5H-[1,3]dioxolo[4,5-f]isoindol-7-one], for which the “potency on acetylcholinesterase compared with positive control drug donepezil hydrochloride” value at acetylcholinesterase is on record as “relative low activity”. In addition, the IC50 at acetylcholinesterase (setting [3]) was more than 2000 nM.

Compound `CC1(C)c2cc3c(cc2C(=O)N1CCC1CCN(Cc2ccccc2)CC1)OCO3` [Compound I-13, 6-[2-(1-benzyl-4-piperidyl)ethyl]-7,7-dimethyl-[1,3]dioxolo[4,5-f]isoindol-5-one] yielded an IC50 against acetylcholinesterase (setting [4]) of more than 2000 nM. For the same compound, the “potency on acetylcholinesterase compared with positive control drug donepezil hydrochloride” value at acetylcholinesterase is “relative low activity”.

Regarding `CC1(C)c2cc3c(cc2C(=O)N1CCC1CCN(Cc2ccc(F)cc2)CC1)OCO3` [Compound I-16, 6-[2-[1-[(4-fluorophenyl)methyl]-4-piperidyl]ethyl]-7,7-dimethyl-[1,3]dioxolo[4,5-f]isoindol-5-one], the “potency on acetylcholinesterase compared with positive control drug donepezil hydrochloride” value on acetylcholinesterase is listed as “relative low activity”. The IC50 on acetylcholinesterase (setting [3]) was more than 2000 nM.

As to `O=C1c2cc3c(cc2C2(CC2)N1CCC1CCN(Cc2ccc(F)cc2)CC1)OCO3` [Compound I-20, 6-[2-[1-[(4-fluorophenyl)methyl]-4-piperidyl]ethyl]spiro[[1,3]dioxolo[4,5-f]isoindole-7,1′-cyclopropane]-5-one], the “potency on acetylcholinesterase compared with positive control drug donepezil hydrochloride” value at acetylcholinesterase was “even lower”. Also, on acetylcholinesterase (setting [3]), the IC50 came out at 706 nM.

Consider `O=C1c2cc3c(cc2C2(CC2)N1CCC1CCN(Cc2ccccc2Cl)CC1)OCO3` [Compound I-21, 6-[2-[1-[(2-chlorophenyl)methyl]-4-piperidyl]ethyl]spiro[[1,3]dioxolo[4,5-f]isoindole-7,1′-cyclopropane]-5-one], for which, at acetylcholinesterase, the “potency on acetylcholinesterase compared with positive control drug donepezil hydrochloride” value is given as “even lower”. Moreover, the IC50 on acetylcholinesterase (setting [3]) worked out at 653 nM.

In the case of `O=C1c2cc3c(cc2C2(CC2)N1CCC1CCN(Cc2ccccc2C(F)(F)F)CC1)OCO3` [Compound I-22, 6-[2-[1-[[2-(trifluoromethyl)phenyl]methyl]-4-piperidyl]ethyl]spiro[[1,3]dioxolo[4,5-f]isoindole-7,1′-cyclopropane]-5-one], at acetylcholinesterase, the “potency on acetylcholinesterase compared with positive control drug donepezil hydrochloride” value is “relative low activity”. On acetylcholinesterase (setting [3]), the 50% inhibitory concentration (IC50) is more than 2000 nM.

As to `N#Cc1ccccc1CN1CCC(CCN2C(=O)c3cc4c(cc3C23CC3)OCO4)CC1` [Compound I-24, 6-[2-[1-[(2-cyanophenyl)methyl]-4-piperidyl]ethyl]spiro[[1,3]dioxolo[4,5-f]isoindole-7,1′-cyclopropane]-5-one], the “potency on acetylcholinesterase compared with positive control drug donepezil hydrochloride” value at acetylcholinesterase was “relative low activity”. Also, on acetylcholinesterase (setting [3]), the IC50 is more than 2000 nM.

As for `O=C1c2cc3c(cc2C2(CC2)N1CCC1CCN(Cc2c(F)cccc2F)CC1)OCO3` [Compound I-25, 6-[2-[1-[(2,6-difluorophenyl)methyl]-4-piperidyl]ethyl]spiro[[1,3]dioxolo[4,5-f]isoindole-7,1′-cyclopropane]-5-one], on acetylcholinesterase, the “potency on acetylcholinesterase compared with positive control drug donepezil hydrochloride” value is on record as “slightly lower potency than the positive control drug”. For the same compound, at acetylcholinesterase (setting [2]), the IC50 was 249 nM.

With `COc1ccccc1CN1CCC(CCN2C(=O)c3cc4c(cc3C23CC3)OCO4)CC1` [Compound I-26, 6-[2-[1-[(2-methoxyphenyl)methyl]-4-piperidyl]ethyl]spiro[[1, 3]dioxolo[4,5-f]isoindole-7,1′-cyclopropane]-5-one], the “potency on acetylcholinesterase compared with positive control drug donepezil hydrochloride” value at acetylcholinesterase is listed as “relative low activity”. Also, on acetylcholinesterase (setting [3]), the IC50 is more than 2000 nM.

As for `COc1cccc(CN2CCC(CCN3C(=O)c4cc5c(cc4C34CC4)OCO5)CC2)c1` [Compound I-27, 6-[2-[1-[(3-methoxyphenyl)methyl]-4-piperidyl]ethyl]spiro[[1, 3]dioxolo[4,5-f]isoindole-7,1′-cyclopropane]-5-one], the “potency on acetylcholinesterase compared with positive control drug donepezil hydrochloride” value on acetylcholinesterase is “relative low activity”. Further, the IC50 on acetylcholinesterase (setting [3]) was more than 2000 nM.

Regarding `COc1ccc(CN2CCC(CCN3C(=O)c4cc5c(cc4C34CC4)OCO5)CC2)cc1` [Compound I-28, 6-[2-[1-[(4-methoxyphenyl)methyl]-4-piperidyl]ethyl]spiro[[1, 3]dioxolo[4,5-f]isoindole-7,1′-cyclopropane]-5-one], the “potency on acetylcholinesterase compared with positive control drug donepezil hydrochloride” value at acetylcholinesterase is listed as “relative low activity”. Also, the IC50 on acetylcholinesterase (setting [2]) is more than 2000 nM.

Regarding `O=C1c2cc3c(cc2C2(CC2)N1CCC1CCN(Cc2cccnc2)CC1)OCO3` [Compound I-30, 6-[2-[1-(3-pyridylmethyl)-4-piperidyl]ethyl]spiro[[1,3]dioxolo[4,5-f]isoindole-7,1′-cyclopropane]-5-one], the “potency on acetylcholinesterase compared with positive control drug donepezil hydrochloride” value at acetylcholinesterase is “relative low activity”. In addition, the IC50 on acetylcholinesterase (setting [3]) was more than 2000 nM.

As to `O=C1c2cc3c(cc2C2(CC2)N1CCC1CCN(Cc2ccncc2)CC1)OCO3` [Compound I-31, 6-[2-[1-(4-pyridylmethyl)-4-piperidyl]ethyl]spiro[[1,3]dioxolo[4,5-f]isoindole-7,1′-cyclopropane]-5-one], the “potency on acetylcholinesterase compared with positive control drug donepezil hydrochloride” value at acetylcholinesterase is on record as “relative low activity”. At acetylcholinesterase (setting [2]), the IC50 was more than 2000 nM.

In the case of `O=C1c2cc3c(cc2C2(CC2)N1CCC1CCN(Cc2ncccn2)CC1)OCO3` [Compound I-32, 6-[2-[1-(pyrimidin-2-ylmethyl)-4-piperidyl]ethyl]spiro[[1,3]dioxolo[4,5-f]isoindole-7,1′-cyclopropane]-5-one], the “potency on acetylcholinesterase compared with positive control drug donepezil hydrochloride” value on acetylcholinesterase was “relative low activity”. The IC50 on acetylcholinesterase (setting [3]) is more than 2000 nM.

Take `O=C1c2cc3c(cc2C(=O)N1CCC1CCN(Cc2ccccn2)CC1)OCO3` [Compound I-36, 6-[2-[1-(2-pyridylmethyl)-4-piperidyl]ethyl]-[1,3]dioxolo[4,5-f]isoindole-5,7-dione]: the “potency on acetylcholinesterase compared with positive control drug donepezil hydrochloride” value at acetylcholinesterase is given as “slightly lower potency than the positive control drug”. Moreover, the IC50 at acetylcholinesterase (setting [3]) is 161 nM.

Source of the values: patent US9346818B2 (priority 2012, dated 2016).
